Results published in US10597390B2, “Indoles for use in influenza virus infection” (Janssen Sciences Ireland UC, priority 2014, dated 2020).

test system: not listed separately; assay: in vitro; conditions: dog, TOX MDCK CC50

Structure (SMILES)	CC50 at 3 days [µM]
O=C(N[C@@H]1CCC[C@H](Nc2nc(-c3c[nH]c4c(F)cc(Cl)cc34)ncc2F)C1)c1ncn[nH]1 [Compound 69]	8.4
Cn1cnc(C(=O)N[C@@H]2CCC[C@H](Nc3nc(-c4c[nH]c5c(F)cc(Cl)cc45)ncc3F)C2)n1 [Compound 70]	9.1
Cc1c[nH]c(C(=O)N[C@@H]2CCC[C@H](Nc3nc(-c4c[nH]c5c(F)cc(Cl)cc45)ncc3F)C2)n1 [Compound 71]	3.4
CCn1ccnc1C(=O)N[C@@H]1CCC[C@H](Nc2nc(-c3c[nH]c4c(F)cc(Cl)cc34)ncc2F)C1 [Compound 72]	2.8
Cc1cn(C)nc1C(=O)N[C@@H]1CCC[C@H](Nc2nc(-c3c[nH]c4c(F)cc(Cl)cc34)ncc2F)C1 [Compound 73]	> 25
Cn1nnc(C(=O)N[C@@H]2CCC[C@H](Nc3nc(-c4c[nH]c5c(F)cc(Cl)cc45)ncc3F)C2)n1 [Compound 74]	> 25
Cn1ncnc1C(=O)N[C@@H]1CCC[C@H](Nc2nc(-c3c[nH]c4c(F)cc(Cl)cc34)ncc2F)C1 [Compound 75]	> 25
Nc1nc(C(=O)N[C@@H]2CCC[C@H](Nc3nc(-c4c[nH]c5c(F)cc(Cl)cc45)ncc3F)C2)cs1 [Compound 76]	2.5
Nc1n[nH]cc1C(=O)N[C@@H]1CCC[C@H](Nc2nc(-c3c[nH]c4c(F)cc(Cl)cc34)ncc2F)C1 [Compound 77]	9.9
Cn1ncc(N)c1C(=O)N[C@@H]1CCC[C@H](Nc2nc(-c3c[nH]c4c(F)cc(Cl)cc34)ncc2F)C1 [Compound 79]	> 25
Cn1nc(C(=O)N[C@@H]2CCC[C@H](Nc3nc(-c4c[nH]c5c(F)cc(Cl)cc45)ncc3F)C2)cc1N [Compound 80]	3.9
O=C(N[C@@H]1CCC[C@H](Nc2nc(-c3c[nH]c4c(F)cc(Cl)cc34)ncc2F)C1)c1nnn[nH]1 [Compound 81]	> 25
Cn1ccnc1C(=O)N[C@H]1CCC[C@@H](Nc2nc(-c3c[nH]c4c(F)cc(F)cc34)ncc2F)C1 [Compound 83]	9.6
O=C(N[C@H]1CCC[C@@H](Nc2nc(-c3c[nH]c4c(F)cc(F)cc34)ncc2F)C1)c1cncs1 [Compound 84]	> 25
COc1cccc(C(=O)N[C@@H]2CCC[C@H](Nc3nc(-c4c[nH]c5c(F)cc(F)cc45)ncc3F)C2)n1 [Compound 98]	14.7
O=C(N[C@@H]1CCC[C@H](Nc2nc(-c3c[nH]c4c(F)cc(F)cc34)ncc2F)C1)c1cc(Cl)ccn1 [Compound 99]	10.2
O=C(N[C@@H]1CCC[C@H](Nc2nc(-c3c[nH]c4c(F)cc(F)cc34)ncc2F)C1)c1ccc2ncccc2n1 [Compound 100]	12.4

test system: influenza virus A/Taiwan/1/86 (H1N1); assay: organism not typed; type: cell-based; conditions: MDCK, 72 h, CPE in MDCK cells, three days post-virus exposure, ATPlite

Structure (SMILES)	IC50 [µM]
O=C(N[C@@H]1CCC[C@H](Nc2nc(-c3c[nH]c4c(F)cc(Cl)cc34)ncc2F)C1)c1ncn[nH]1 [Compound 69]	0.002
Cn1cnc(C(=O)N[C@@H]2CCC[C@H](Nc3nc(-c4c[nH]c5c(F)cc(Cl)cc45)ncc3F)C2)n1 [Compound 70]	0.004
Cc1c[nH]c(C(=O)N[C@@H]2CCC[C@H](Nc3nc(-c4c[nH]c5c(F)cc(Cl)cc45)ncc3F)C2)n1 [Compound 71]	0.002
CCn1ccnc1C(=O)N[C@@H]1CCC[C@H](Nc2nc(-c3c[nH]c4c(F)cc(Cl)cc34)ncc2F)C1 [Compound 72]	0.003
Cc1cn(C)nc1C(=O)N[C@@H]1CCC[C@H](Nc2nc(-c3c[nH]c4c(F)cc(Cl)cc34)ncc2F)C1 [Compound 73]	0.009
Cn1nnc(C(=O)N[C@@H]2CCC[C@H](Nc3nc(-c4c[nH]c5c(F)cc(Cl)cc45)ncc3F)C2)n1 [Compound 74]	0.019
Cn1ncnc1C(=O)N[C@@H]1CCC[C@H](Nc2nc(-c3c[nH]c4c(F)cc(Cl)cc34)ncc2F)C1 [Compound 75]	0.012
Nc1nc(C(=O)N[C@@H]2CCC[C@H](Nc3nc(-c4c[nH]c5c(F)cc(Cl)cc45)ncc3F)C2)cs1 [Compound 76]	0.0006
Nc1n[nH]cc1C(=O)N[C@@H]1CCC[C@H](Nc2nc(-c3c[nH]c4c(F)cc(Cl)cc34)ncc2F)C1 [Compound 77]	0.003
Cn1ncc(N)c1C(=O)N[C@@H]1CCC[C@H](Nc2nc(-c3c[nH]c4c(F)cc(Cl)cc34)ncc2F)C1 [Compound 79]	0.038
Cn1nc(C(=O)N[C@@H]2CCC[C@H](Nc3nc(-c4c[nH]c5c(F)cc(Cl)cc45)ncc3F)C2)cc1N [Compound 80]	0.004
O=C(N[C@@H]1CCC[C@H](Nc2nc(-c3c[nH]c4c(F)cc(Cl)cc34)ncc2F)C1)c1nnn[nH]1 [Compound 81]	0.039
Cn1ccnc1C(=O)N[C@H]1CCC[C@@H](Nc2nc(-c3c[nH]c4c(F)cc(F)cc34)ncc2F)C1 [Compound 83]	0.002
O=C(N[C@H]1CCC[C@@H](Nc2nc(-c3c[nH]c4c(F)cc(F)cc34)ncc2F)C1)c1cncs1 [Compound 84]	0.003
COc1cccc(C(=O)N[C@@H]2CCC[C@H](Nc3nc(-c4c[nH]c5c(F)cc(F)cc45)ncc3F)C2)n1 [Compound 98]	0.043
O=C(N[C@@H]1CCC[C@H](Nc2nc(-c3c[nH]c4c(F)cc(F)cc34)ncc2F)C1)c1cc(Cl)ccn1 [Compound 99]	0.012
O=C(N[C@@H]1CCC[C@H](Nc2nc(-c3c[nH]c4c(F)cc(F)cc34)ncc2F)C1)c1ccc2ncccc2n1 [Compound 100]	0.054

test system: not given; assay: not given; conditions: not given

Structure (SMILES)	melting point [°C]
O=C(N[C@@H]1CCC[C@H](Nc2nc(-c3c[nH]c4c(F)cc(Cl)cc34)ncc2F)C1)c1ncn[nH]1 [Compound 69]	293.5
Cn1cnc(C(=O)N[C@@H]2CCC[C@H](Nc3nc(-c4c[nH]c5c(F)cc(Cl)cc45)ncc3F)C2)n1 [Compound 70]	291.9
Cc1c[nH]c(C(=O)N[C@@H]2CCC[C@H](Nc3nc(-c4c[nH]c5c(F)cc(Cl)cc45)ncc3F)C2)n1 [Compound 71]	276.8
CCn1ccnc1C(=O)N[C@@H]1CCC[C@H](Nc2nc(-c3c[nH]c4c(F)cc(Cl)cc34)ncc2F)C1 [Compound 72]	156.4
Cc1cn(C)nc1C(=O)N[C@@H]1CCC[C@H](Nc2nc(-c3c[nH]c4c(F)cc(Cl)cc34)ncc2F)C1 [Compound 73]	248.4
Cn1nnc(C(=O)N[C@@H]2CCC[C@H](Nc3nc(-c4c[nH]c5c(F)cc(Cl)cc45)ncc3F)C2)n1 [Compound 74]	259.7
Cn1ncnc1C(=O)N[C@@H]1CCC[C@H](Nc2nc(-c3c[nH]c4c(F)cc(Cl)cc34)ncc2F)C1 [Compound 75]	> 300
Nc1nc(C(=O)N[C@@H]2CCC[C@H](Nc3nc(-c4c[nH]c5c(F)cc(Cl)cc45)ncc3F)C2)cs1 [Compound 76]	184.8
Nc1n[nH]cc1C(=O)N[C@@H]1CCC[C@H](Nc2nc(-c3c[nH]c4c(F)cc(Cl)cc34)ncc2F)C1 [Compound 77]	133
Cn1ncc(N)c1C(=O)N[C@@H]1CCC[C@H](Nc2nc(-c3c[nH]c4c(F)cc(Cl)cc34)ncc2F)C1 [Compound 79]	166.4
Cn1nc(C(=O)N[C@@H]2CCC[C@H](Nc3nc(-c4c[nH]c5c(F)cc(Cl)cc45)ncc3F)C2)cc1N [Compound 80]	174.8
O=C(N[C@@H]1CCC[C@H](Nc2nc(-c3c[nH]c4c(F)cc(Cl)cc34)ncc2F)C1)c1nnn[nH]1 [Compound 81]	275.1
Cn1ccnc1C(=O)N[C@H]1CCC[C@@H](Nc2nc(-c3c[nH]c4c(F)cc(F)cc34)ncc2F)C1 [Compound 83]	166.6
O=C(N[C@H]1CCC[C@@H](Nc2nc(-c3c[nH]c4c(F)cc(F)cc34)ncc2F)C1)c1cncs1 [Compound 84]	295.2
COc1cccc(C(=O)N[C@@H]2CCC[C@H](Nc3nc(-c4c[nH]c5c(F)cc(F)cc45)ncc3F)C2)n1 [Compound 98]	240
O=C(N[C@@H]1CCC[C@H](Nc2nc(-c3c[nH]c4c(F)cc(F)cc34)ncc2F)C1)c1cc(Cl)ccn1 [Compound 99]	86
O=C(N[C@@H]1CCC[C@H](Nc2nc(-c3c[nH]c4c(F)cc(F)cc34)ncc2F)C1)c1ccc2ncccc2n1 [Compound 100]	84.6
